Source: ChEMBL document CHEMBL1909046, “DrugMatrix in vitro pharmacology data”

Experiments:
[1] = target: T1, Polyunsaturated fatty acid lipoxygenase ALOX15 (Oryctolagus cuniculus, UniProt P12530); assay: biochemical; format: tissue-based, Reticulocytes;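 also: inhibition of 15-lipoxygenase enzyme activity measured with linoleic acid as the substrate; in other assays of this panel Not Active means under 50% inhibition at 10 µM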
T1 sequence (P12530 whole entry): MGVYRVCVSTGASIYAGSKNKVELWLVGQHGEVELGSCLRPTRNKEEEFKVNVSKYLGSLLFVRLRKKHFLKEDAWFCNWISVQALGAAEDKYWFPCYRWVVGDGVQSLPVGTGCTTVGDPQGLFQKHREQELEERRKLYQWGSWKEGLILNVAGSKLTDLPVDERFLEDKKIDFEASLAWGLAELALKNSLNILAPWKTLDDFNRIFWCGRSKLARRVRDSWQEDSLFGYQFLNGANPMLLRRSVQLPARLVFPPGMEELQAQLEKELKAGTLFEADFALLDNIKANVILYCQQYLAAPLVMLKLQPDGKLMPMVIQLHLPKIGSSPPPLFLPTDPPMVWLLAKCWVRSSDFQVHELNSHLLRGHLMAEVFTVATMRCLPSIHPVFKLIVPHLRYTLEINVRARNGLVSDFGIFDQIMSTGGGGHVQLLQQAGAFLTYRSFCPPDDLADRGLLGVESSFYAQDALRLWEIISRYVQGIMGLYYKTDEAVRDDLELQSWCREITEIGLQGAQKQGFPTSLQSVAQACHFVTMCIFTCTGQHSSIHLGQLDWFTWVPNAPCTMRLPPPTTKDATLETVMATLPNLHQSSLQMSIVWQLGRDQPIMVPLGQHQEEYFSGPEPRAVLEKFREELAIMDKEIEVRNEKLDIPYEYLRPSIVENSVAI

[2] = target: T2, C-C chemokine receptor type 4 (Homo sapiens, UniProt P51679); format: cell membranes, Membrane; conditions: chem-1; also: in other assays of this panel Not Active means under 50% inhibition at 10 µM
T2 sequence (P51679 whole entry): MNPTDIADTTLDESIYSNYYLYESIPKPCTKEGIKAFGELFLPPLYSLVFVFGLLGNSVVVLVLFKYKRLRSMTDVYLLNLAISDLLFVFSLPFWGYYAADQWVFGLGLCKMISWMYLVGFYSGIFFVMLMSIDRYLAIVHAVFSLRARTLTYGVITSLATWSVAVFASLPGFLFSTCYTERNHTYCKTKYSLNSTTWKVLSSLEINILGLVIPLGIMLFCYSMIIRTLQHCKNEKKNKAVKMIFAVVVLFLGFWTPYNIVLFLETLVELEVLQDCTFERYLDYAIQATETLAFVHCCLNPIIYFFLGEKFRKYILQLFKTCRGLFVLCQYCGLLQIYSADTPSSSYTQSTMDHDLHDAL

[3] = target: D(1A) dopamine receptor (Homo sapiens, UniProt P21728); assay: DRUGMATRIX: Dopamine D1 radioligand binding (ligand: [3H] SCH-23390); format: cell membranes, CHO, Membrane; conditions: Not Active = under 50% inhibition at 10 µM
Sequence of D(1A) dopamine receptor (P21728 whole entry): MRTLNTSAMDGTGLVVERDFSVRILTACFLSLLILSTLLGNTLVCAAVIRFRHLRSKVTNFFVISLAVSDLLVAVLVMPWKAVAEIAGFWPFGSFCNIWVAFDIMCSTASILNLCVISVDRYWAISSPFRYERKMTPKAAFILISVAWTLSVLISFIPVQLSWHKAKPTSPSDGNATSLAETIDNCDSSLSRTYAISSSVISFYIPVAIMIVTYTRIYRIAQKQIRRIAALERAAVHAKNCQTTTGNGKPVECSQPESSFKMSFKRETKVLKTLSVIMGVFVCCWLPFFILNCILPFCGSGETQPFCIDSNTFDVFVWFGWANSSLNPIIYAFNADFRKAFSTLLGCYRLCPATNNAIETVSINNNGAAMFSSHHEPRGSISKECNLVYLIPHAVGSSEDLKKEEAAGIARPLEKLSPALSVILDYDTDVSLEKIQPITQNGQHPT

[4] = target: T3, Adenosine receptor A1 (Homo sapiens, UniProt P30542); format: cell membranes, CHO, Membrane; conditions: cho;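 also: radioligand binding assay at the adenosine A1 receptor, with DPCPX serving as the labelled ligand; in other assays of this panel Not Active means under 50% inhibition at 10 µM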
T3 sequence (P30542 whole entry): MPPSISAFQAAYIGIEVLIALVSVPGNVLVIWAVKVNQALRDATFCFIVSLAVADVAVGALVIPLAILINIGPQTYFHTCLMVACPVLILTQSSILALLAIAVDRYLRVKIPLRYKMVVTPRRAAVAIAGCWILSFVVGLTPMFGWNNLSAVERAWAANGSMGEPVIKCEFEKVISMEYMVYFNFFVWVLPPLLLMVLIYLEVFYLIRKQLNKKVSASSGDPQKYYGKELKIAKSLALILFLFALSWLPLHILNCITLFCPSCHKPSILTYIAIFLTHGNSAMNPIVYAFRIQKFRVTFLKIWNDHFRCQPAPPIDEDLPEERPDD

[5] = DRUGMATRIX: Sodium/nucleoside co-transporter radioligand binding (ligand: nitrobenzylthioinosine); format: cell membranes, Cavia porcellus, Dunkin-Hartley, Cerebral cortex, Membrane; conditions: Not Active = under 50% inhibition at 10 µM
[6] = target: Mu-type opioid receptor (Homo sapiens, UniProt P35372); assay: DRUGMATRIX: Opiate mu (OP3, MOP) radioligand binding (ligand: [3H] Diprenorphine); format: cell membranes, CHO-K1, Membrane; conditions: Not Active = under 50% inhibition at 10 µM
Sequence of Mu-type opioid receptor (P35372 whole entry): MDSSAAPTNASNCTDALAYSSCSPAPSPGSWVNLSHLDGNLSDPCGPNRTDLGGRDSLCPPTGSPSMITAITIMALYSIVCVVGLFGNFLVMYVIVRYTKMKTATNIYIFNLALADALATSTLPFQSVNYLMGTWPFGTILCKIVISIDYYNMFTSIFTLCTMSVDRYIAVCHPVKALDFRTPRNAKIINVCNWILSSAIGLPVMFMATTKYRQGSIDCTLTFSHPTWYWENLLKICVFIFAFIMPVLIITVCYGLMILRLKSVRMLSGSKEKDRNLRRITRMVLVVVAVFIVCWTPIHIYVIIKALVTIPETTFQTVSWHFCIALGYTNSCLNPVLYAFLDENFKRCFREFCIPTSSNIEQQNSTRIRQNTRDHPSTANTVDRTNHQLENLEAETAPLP

SMILES | IC50 ([1]; reticulocytes) | IC50 [2] | IC50 ([3]; cho) | IC50 [4] | IC50 [5] | Ki [5] | IC50 ([6]; cho-k1) | IC50 ([3]; read-out: IC50) [nM] | Ki ([3]; read-out: Ki) [nM] | Ki [6] [nM] | IC50 ([6]; read-out: IC50) [nM] | IC50 ([1]; read-out: IC50) [nM]
Cc1cc(O)cc(C)c1Cl [CHLOROXYLENOL] | Not Active | Not Active | Not Active | Not Active | Not Active | Not Active | Not Active | – | – | – | – | –
CCCNC(=O)NS(=O)(=O)c1ccc(Cl)cc1 [CHLORPROPAMIDE] | Not Active | Not Active | Not Active | Not Active | Not Active | Not Active | Not Active | – | – | – | – | –
NS(=O)(=O)c1cc(C2(O)NC(=O)c3ccccc32)ccc1Cl (stereo not drawn) [CHLORTHALIDONE] | Not Active | Not Active | Not Active | Not Active | Not Active | Not Active | Not Active | – | – | – | – | –
O=C(O)CC(O)(CC(=O)O)C(=O)O [CITRIC ACID] | Not Active | Not Active | Not Active | Not Active | Not Active | Not Active | Not Active | – | – | – | – | –
CC(C)NCC(O)c1ccccc1Cl (stereo not drawn) [CLORPRENALINE] | Not Active | Not Active | Not Active | Not Active | Not Active | Not Active | Not Active | – | – | – | – | –
CN1CCN(C(c2ccccc2)c2ccccc2)CC1 [CYCLIZINE] | Not Active | Not Active | Not Active | Not Active | Not Active | Not Active | Not Active | – | – | – | – | –
CN1C[C@@H]2C[C@H]1CN2c1cc2c(cc1F)c(=O)c(C(=O)O)cn2C1CC1 [DANOFLOXACIN] | Not Active | Not Active | Not Active | Not Active | Not Active | Not Active | Not Active | – | – | – | – | –
COc1cccc2c1C(=O)c1c(O)c3c(c(O)c1C2=O)C[C@@](O)(C(C)=O)C[C@@H]3O[C@H]1C[C@H](N)[C@H](O)[C@H](C)O1 [DAUNORUBICIN] | Not Active | Not Active | Not Active | Not Active | Not Active | Not Active | Not Active | – | – | – | – | –
O=C(O)c1cc(-c2ccc(F)cc2F)ccc1O [DIFLUNISAL] | Not Active | Not Active | Not Active | Not Active | Not Active | Not Active | Not Active | – | – | – | – | –
C[S+](C)[O-] [DIMETHYL SULFOXIDE] | Not Active | Not Active | Not Active | Not Active | Not Active | Not Active | Not Active | – | – | – | – | –
CC1=NN(c2ccccc2)C(=O)C1 [EDARAVONE] | Not Active | Not Active | Not Active | Not Active | Not Active | Not Active | Not Active | – | – | – | – | –
CC(C)C[C@H]1C(=O)N2CCC[C@H]2[C@]2(O)O[C@](NC(=O)[C@@H]3C=C4c5cccc6[nH]cc(c56)C[C@H]4N(C)C3)(C(C)C)C(=O)N12 [ERGOCRYPTINE] | Not Active | Not Active | – | Not Active | Not Active | Not Active | – | 403 | 202 | 985 | 2430 | –
C[C@]12CC[C@@H]3c4ccc(O)cc4CC[C@H]3[C@@H]1C[C@@H](O)[C@@H]2O [ESTRIOL] | – | Not Active | Not Active | Not Active | Not Active | Not Active | Not Active | – | – | – | – | 8640
